The source of these data is patent US20240342177A1, “METHODS OF TREATING BRAIN CANCER” (priority 2021, published 2024).

Each structure is given as a SMILES string.

One data set has as its system P008480 (Ependymoma). Briefly: In vitro efficacy, dose response in ependymoma culture.
For data set [1], the system named is U-87-MG human glioblastoma cell line. Briefly: U-87-MG cell proliferation (Incucyte confluency). Format: cell-based. Particulars: 72 hours with drug, 5-FU concentration, read-out: IC50, inhibiting cell proliferation. How it is done: U-87-MG cells are maintained in DMEM (high glucose)+10% FCS
• 96-well 2D format (triplicate wells per drug concentration). • Cells seeded at 10,000 cells/well>24 hours incubation. • Drugs added 24 hours later and cells incubated a further 72 hours. • Cells imaged every 6 hours using Incucyte ZOOM for cell proliferation (confluency measurement) and evidence of cell death.

A further data set relates to DIPG-7 (DMG). Nature of the data set: In vitro efficacy, dose response in DMG neurospheres DIPG-7. The settings on record: Homo sapiens.
The next data set has as its system P000302 (Healthy cells). Nature of the data set: In vitro dose response in healthy astrocytes (control model system).
In a further data set the test system is P002306 (DMG). Briefly: In vitro efficacy, dose response in DMG neurospheres P002306.
The next data set relates to RA055 (DMG). Nature of the data set: In vitro efficacy, dose response in DMG neurospheres RA055.
For data set [2] the following is noted: cited from earlier work.

Procedure for DIPG-7 (DMG): (§1) Assessment of in vitro activity of the composition used in the methods of the present disclosure was undertaken in patient-derived Diffuse Midline Glioma (DMG) neurospheres.
(§2) In particular, activity of the composition against human DMG cells was compared to that of 5-FU, a combination of 5-FU and FA, or a media control.
(§3) The composition used in the methods of the present disclosure was tested at a 5-FU to FA (Leucovorin) ratio of 15:1 (termed ‘Deflexifol’), and compared to 5-FU as a single agent (‘5-FU’); FA (Leucovorin) as a single agent (‘Leucovorin’); or a combination of 5-FU and FA (Leucovorin) (‘5-FU+Leucovorin’).
(§4) The tested concentrations were selected with reference to the clinical maximum tolerated plasma concentration of 5-FU (530 μM), as detailed in Table 5.
(§5) Screening was conducted in a 96-well format, with N=4 curves, using: • three different DMG cell lines: P002306, DIPG-7 and RA055 • one ependymoma culture and • one set of healthy astrocytes (control model system).
Procedure for P000302 (Healthy cells): as §3, §5
Procedure for P002306 (DMG): as §1, §2, §3, §4, §5
Procedure for P008480 (Ependymoma): as §3, §5
Procedure for RA055 (DMG): as §1, §2, §3, §4, §5

Regarding `O=c1[nH]cc(F)c(=O)[nH]1` [5-FU, 5-fluoro-2,4 (1H,3H)-pyrimidinedione], the IC50 in the data set on P008480 (Ependymoma) (Homo sapiens) was > 500 µM; in data set [1], 120 µM; in the data set with DIPG-7 (DMG) it was ~22.3 µM; in the data set on P000302 (Healthy cells) (Homo sapiens, Astrocyte), ~500 µM; with P002306 (DMG) (Homo sapiens), ~1.9 µM; in the data set on RA055 (DMG) (Homo sapiens) it was ~200 µM. Moreover, the “AUC (dose response)” value is recorded as “AUC: 373.2” in the data set with P008480 (Ependymoma) (P008480 (Ependymoma)), “AUC: 294.3” with P000302 (Healthy cells) (P000302 (Healthy cells)), “AUC: 171.4” in the data set with P002306 (DMG) (P002306 (DMG)) and “AUC: 332.6” in the data set with RA055 (DMG) (RA055 (DMG)). The “clinical maximum tolerated plasma concentration” value in data set [2] (human, in vivo) was 530 µM. Besides, in data set [2] (i.v.b.), the “human tolerability of i.v.b. administration” value is reported as “approximately 500 mg/mg^2”.
